These results are taken from patent US10385057B2, “Pyrazole compounds and methods of making and using same” (Lundbeck La Jolla Research Center, Inc., priority 2015, dated 2019).

For one assay, the target named is T1, MAGL (Mus musculus, UniProt O35678).
T1 construct: mouse brain membrane fraction or cell lysates for mouse assays; from tissue
T1 sequence (O35678 1-303): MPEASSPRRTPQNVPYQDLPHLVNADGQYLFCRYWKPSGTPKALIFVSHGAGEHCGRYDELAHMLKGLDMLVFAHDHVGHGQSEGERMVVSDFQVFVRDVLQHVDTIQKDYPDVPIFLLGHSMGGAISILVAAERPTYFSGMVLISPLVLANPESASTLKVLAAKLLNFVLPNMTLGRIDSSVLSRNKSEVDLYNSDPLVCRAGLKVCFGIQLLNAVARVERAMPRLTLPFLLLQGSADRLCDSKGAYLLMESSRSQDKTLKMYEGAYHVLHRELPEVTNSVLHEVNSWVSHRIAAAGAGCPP
In words: In vitro competitive activity-based protein profiling, mouse MAGL. In kind it is biochemical. To be noted: for inhibition at 1 µM: read-out: MAGL % inh. 1 μM (mouse). In outline: (§1)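 Mouse brain membranes or cell lysates (mouse) and human prefrontal cortex or cell membrane fractions (human), 1.0 mg/mL protein, preincubated with inhibitor 30 min at 37 °C, then FP-Rh or HT-01 probe 30 min at 37 °C. SDS-PAGE; MAGL and FAAH activity from in-gel fluorescence band intensity.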

The target of another assay is T2, FAAH (Mus musculus, UniProt O08914).
T2 construct: mouse brain membrane fraction or cell lysates for mouse assays; from tissue
T2 sequence (O08914 1-579): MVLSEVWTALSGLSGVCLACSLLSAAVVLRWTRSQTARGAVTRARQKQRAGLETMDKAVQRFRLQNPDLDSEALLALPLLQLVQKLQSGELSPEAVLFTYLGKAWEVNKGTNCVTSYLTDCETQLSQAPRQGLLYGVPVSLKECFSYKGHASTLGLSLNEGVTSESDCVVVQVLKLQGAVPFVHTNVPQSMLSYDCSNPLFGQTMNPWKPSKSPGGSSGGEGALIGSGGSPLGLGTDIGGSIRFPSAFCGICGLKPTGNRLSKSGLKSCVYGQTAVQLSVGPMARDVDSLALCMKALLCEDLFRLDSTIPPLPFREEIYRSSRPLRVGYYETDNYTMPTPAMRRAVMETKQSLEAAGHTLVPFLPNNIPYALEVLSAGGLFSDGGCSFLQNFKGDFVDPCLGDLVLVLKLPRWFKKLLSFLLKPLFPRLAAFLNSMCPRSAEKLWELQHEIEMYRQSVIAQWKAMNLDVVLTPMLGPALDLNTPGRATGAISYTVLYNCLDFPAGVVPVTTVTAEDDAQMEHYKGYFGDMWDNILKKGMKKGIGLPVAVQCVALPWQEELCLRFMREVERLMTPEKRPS
In words: In vitro competitive activity-based protein profiling, mouse FAAH. To be noted: for inhibition at 1 µM: read-out: FAAH % inh. 1 μM (mouse). The class given is biochemical. The gist of the method:
as §1

One may read the IC50 as the point on the concentration scale where inhibition reaches its midpoint. Read a low IC50 as greater potency.

Regarding `O=C(N1CC2CN(Cc3ccc(C(F)(F)F)cc3)CC2C1)n1cc(Cl)cn1` (stereo not drawn) [Example 120, (4-chloro-1H-pyrazol-1-yl)(5-(4-(trifluoromethyl)benzyl)hexahydropyrrolo[3,4-c]pyrrol-2(1H)-yl)methanone], at MAGL, the half-inhibitory concentration (IC50) was at most 100 nM and the inhibition at 1 µM was at least 75%. In addition, on FAAH, the half-inhibitory concentration (IC50) was at most 100 nM and the inhibition at 1 µM was at least 75%.
As to `Cc1cc(-c2ccccc2)ccc1CN1CC2CN(C(=O)n3cc(Cl)cn3)CC2C1` (stereo not drawn) [Example 121, (4-chloro-1H-pyrazol-1-yl)(5-((3-methyl-[1,1′-biphenyl]-4-yl)methyl)hexahydropyrrolo[3,4-c]pyrrol-2(1H)-yl)methanone], on MAGL, the half-inhibitory concentration (IC50) is at most 100 nM and the inhibition at 1 µM was at least 75%. Further, at FAAH, the concentration for half-maximal inhibition (IC50) is at most 100 nM and the inhibition at 1 µM is at least 75%.
As to `O=C(N1CC2CN(Cc3ccc(CN4CCOCC4)cc3)CC2C1)n1cc(Cl)cn1` (stereo not drawn) [Example 122, (4-chloro-1H-pyrazol-1-yl)(5-(4-(morpholinomethyl)benzyl)hexahydropyrrolo[3,4-c]pyrrol-2(1H)-yl)methanone], on MAGL, the IC50 lay in the range of 100 to 1000 nM and the inhibition at 1 µM was at least 75%. Moreover, at FAAH, the IC50 lay in the range of 100 to 1000 nM and the inhibition at 1 µM is at least 75%.
On to `O=C(N1CC2CN(Cc3ccc(N4CCCC4)cc3)CC2C1)n1cc(Cl)cn1` (stereo not drawn) [Example 123, (4-chloro-1H-pyrazol-1-yl)(5-(4-(pyrrolidin-1-yl)benzyl)hexahydropyrrolo[3,4-c]pyrrol-2(1H)-yl)methanone], for which the IC50 at MAGL and on FAAH was 100 to 1000 nM each time. Besides, the inhibition at 1 µM at MAGL and at FAAH was at least 75% each time.
As to `O=C(N1CC2CN(Cc3cccc(Oc4ccccc4)c3)CC2C1)n1cc(Cl)cn1` (stereo not drawn) [Example 124, (4-chloro-1H-pyrazol-1-yl)(5-(3-phenoxybenzyl)hexahydropyrrolo[3,4-c]pyrrol-2(1H)-yl)methanone], the IC50 at MAGL and on FAAH was at most 100 nM throughout. The inhibition at 1 µM at MAGL and on FAAH was at least 75% each time.
Regarding `O=C(N1CC2CN(Cc3ccc(N4CCOCC4)cc3)CC2C1)n1cc(Cl)cn1` (stereo not drawn) [Example 125, (4-chloro-1H-pyrazol-1-yl)(5-(4-morpholinobenzyl)hexahydropyrrolo[3,4-c]pyrrol-2(1H)-yl)methanone], the half-inhibitory concentration (IC50) at MAGL and at FAAH was 100 to 1000 nM in each case. In addition, the inhibition at 1 µM at MAGL and at FAAH was at least 75% each time.
As to `O=C(N1CC2CN(Cc3ccc(N4CCOCC4)cc3Cl)CC2C1)n1cc(Cl)cn1` (stereo not drawn) [Example 126, (4-chloro-1H-pyrazol-1-yl)(5-(2-chloro-4-morpholinobenzyl)hexahydropyrrolo[3,4-c]pyrrol-2(1H)-yl)methanone], on MAGL, the IC50 was at most 100 nM and the inhibition at 1 µM was at least 75%. Further, on FAAH, the IC50 was at most 100 nM and the inhibition at 1 µM is at least 75%.
Regarding `O=C(N1CCC2(CCN(Cc3ccc(Cl)c(Cl)c3)C2)C1)n1cc(Cl)cn1` (stereo not drawn) [Example 127, (4-chloro-1H-pyrazol-1-yl)(7-(3,4-dichlorobenzyl)-2,7-diazaspiro[4.4]nonan-2-yl)methanone], at MAGL, the IC50 lay in the range of 100 to 1000 nM and the inhibition at 1 µM is at least 75%. On FAAH, the IC50 was at most 100 nM and the inhibition at 1 µM is at least 75%.
As to `O=C(N1CCC2(CCN(Cc3ccc(C(F)(F)F)cc3)C2)C1)n1cc(Cl)cn1` (stereo not drawn) [Example 128, (4-chloro-1H-pyrazol-1-yl)(7-(4-(trifluoromethyl)benzyl)-2,7-diazaspiro[4.4]nonan-2-yl)methanone], the IC50 at MAGL and on FAAH was 100 to 1000 nM in each case. Besides, the inhibition at 1 µM at MAGL and at FAAH was at least 75% in each case.
On to `O=C(N1CCC2(CCN(Cc3ccc(CN4CCOCC4)cc3)C2)C1)n1cc(Cl)cn1` (stereo not drawn) [Example 129, (4-chloro-1H-pyrazol-1-yl)(7-(4-(morpholinomethyl)benzyl)-2,7-diazaspiro[4.4]nonan-2-yl)methanone], for which the inhibition at 1 µM on MAGL fell in the range of 25 to 50%; on FAAH, 50 to 75%.
Consider `Cc1cc(N2CCOCC2)ccc1CN1CC2CN(C(=O)n3cc(Cl)cn3)CC2C1` (stereo not drawn) [Example 131, (4-chloro-1H-pyrazol-1-yl)(5-(2-methyl-4-morpholinobenzyl)hexahydropyrrolo[3,4-c]pyrrol-2(1H)-yl)methanone], for which, at MAGL, the concentration for half-maximal inhibition (IC50) is at most 100 nM and the inhibition at 1 µM is at least 75%. Moreover, on FAAH, the IC50 is at most 100 nM and the inhibition at 1 µM is at least 75%.
For `O=C(N1CCC2(CCN(Cc3ccc(N4CCCC4)cc3)C2)C1)n1cc(Cl)cn1` (stereo not drawn) [Example 134, (4-chloro-1H-pyrazol-1-yl)(7-(4-(pyrrolidin-1-yl)benzyl)-2,7-diazaspiro[4.4]nonan-2-yl)methanone], on MAGL, the concentration for half-maximal inhibition (IC50) was in the range of 100 to 1000 nM and the inhibition at 1 µM was at least 75%. Also, at FAAH, the IC50 is at most 100 nM and the inhibition at 1 µM is at least 75%.
In the case of `O=C(N1CCC2(CCN(Cc3cccc(Oc4ccccc4)c3)C2)C1)n1cc(Cl)cn1` (stereo not drawn) [Example 135, (4-chloro-1H-pyrazol-1-yl)(7-(3-phenoxybenzyl)-2,7-diazaspiro[4.4]nonan-2-yl)methanone], at MAGL, the IC50 fell in the range of 100 to 1000 nM and the inhibition at 1 µM is at least 75%. For the same compound, on FAAH, the IC50 was at most 100 nM and the inhibition at 1 µM was at least 75%.
As for `O=C(N1CCC2(CCN(Cc3ccc(N4CCOCC4)cc3)C2)C1)n1cc(Cl)cn1` (stereo not drawn) [Example 136, (4-chloro-1H-pyrazol-1-yl)(7-(4-morpholinobenzyl)-2,7-diazaspiro[4.4]nonan-2-yl)methanone], at MAGL, the IC50 was 100 to 1000 nM and the inhibition at 1 µM is at least 75%. At FAAH, the IC50 was in the range of 100 to 1000 nM and the inhibition at 1 µM is at least 75%.
`O=C(N1CCC2(CCN(Cc3ccc(N4CCOCC4)cc3Cl)C2)C1)n1cc(Cl)cn1` (stereo not drawn) [Example 137, (4-chloro-1H-pyrazol-1-yl)(7-(2-chloro-4-morpholinobenzyl)-2,7-diazaspiro[4.4]nonan-2-yl)methanone]: the IC50 on MAGL and at FAAH was at most 100 nM in each case. For the same compound, the inhibition at 1 µM at MAGL and on FAAH was at least 75% each time.
On to `Cc1cc(N2CCOCC2)ccc1CN1CCC2(CCN(C(=O)n3cc(Cl)cn3)C2)C1` (stereo not drawn) [Example 138, (4-chloro-1H-pyrazol-1-yl)(7-(2-methyl-4-morpholinobenzyl)-2,7-diazaspiro[4.4]nonan-2-yl)methanone], for which the IC50 at MAGL is 100 to 1000 nM; at FAAH it was at most 100 nM. Also, the inhibition at 1 µM at MAGL and at FAAH was at least 75% in each case.
Regarding `Cc1cccc(CN2CC3CN(C(=O)n4cc(C(F)(F)F)cn4)CC3C2)c1` (stereo not drawn) [Example 141, (5-(3-methylbenzyl)hexahydropyrrolo[3,4-c]pyrrol-2(1H)-yl)(4-(trifluoromethyl)-1H-pyrazol-1-yl)methanone], on MAGL, the IC50 was at most 100 nM and the inhibition at 1 µM is at least 75%. Moreover, on FAAH, the IC50 was at most 100 nM and the inhibition at 1 µM was at least 75%.
Regarding `COc1cccc(CN2CC3CN(C(=O)n4cc(C(F)(F)F)cn4)CC3C2)c1` (stereo not drawn) [Example 142, (5-(3-methoxybenzyl)hexahydropyrrolo[3,4-c]pyrrol-2(1H)-yl)(4-(trifluoromethyl)-1H-pyrazol-1-yl)methanone], on MAGL, the IC50 is at most 100 nM and the inhibition at 1 µM was at least 75%. Besides, on FAAH, the IC50 was at most 100 nM and the inhibition at 1 µM was at least 75%.
`O=C(N1CC2CN(Cc3cccc(C(F)(F)F)c3)CC2C1)n1cc(C(F)(F)F)cn1` (stereo not drawn) [Example 143, (4-(trifluoromethyl)-1H-pyrazol-1-yl)(5-(3-(trifluoromethyl)benzyl)hexahydropyrrolo[3,4-c]pyrrol-2(1H)-yl)methanone]: on MAGL, the 50% inhibitory concentration (IC50) was at most 100 nM and the inhibition at 1 µM was at least 75%. On FAAH, the IC50 was at most 100 nM and the inhibition at 1 µM was at least 75%.
Take `O=C(N1CC2CN(Cc3cccc(N4CCCC4)c3)CC2C1)n1cc(C(F)(F)F)cn1` (stereo not drawn) [Example 144, (5-(3-(pyrrolidin-1-yl)benzyl)hexahydropyrrolo[3,4-c]pyrrol-2(1H)-yl)(4-(trifluoromethyl)-1H-pyrazol-1-yl)methanone]: the IC50 at MAGL and at FAAH was at most 100 nM in each case. The inhibition at 1 µM at MAGL and on FAAH was at least 75% throughout.
